pIC50: −log10 of the molar value.
Legend:
[1] = target: T1, α-amylase (porcine pancreatic amylase) (Sus scrofa, UniProt P00690); assay: chromogenic enzyme inhibition assay ([…] nm), commercial porcine pancreatic amylase; type: biochemical
T1 construct: gene AMY2
T1 sequence (P00690 16-511): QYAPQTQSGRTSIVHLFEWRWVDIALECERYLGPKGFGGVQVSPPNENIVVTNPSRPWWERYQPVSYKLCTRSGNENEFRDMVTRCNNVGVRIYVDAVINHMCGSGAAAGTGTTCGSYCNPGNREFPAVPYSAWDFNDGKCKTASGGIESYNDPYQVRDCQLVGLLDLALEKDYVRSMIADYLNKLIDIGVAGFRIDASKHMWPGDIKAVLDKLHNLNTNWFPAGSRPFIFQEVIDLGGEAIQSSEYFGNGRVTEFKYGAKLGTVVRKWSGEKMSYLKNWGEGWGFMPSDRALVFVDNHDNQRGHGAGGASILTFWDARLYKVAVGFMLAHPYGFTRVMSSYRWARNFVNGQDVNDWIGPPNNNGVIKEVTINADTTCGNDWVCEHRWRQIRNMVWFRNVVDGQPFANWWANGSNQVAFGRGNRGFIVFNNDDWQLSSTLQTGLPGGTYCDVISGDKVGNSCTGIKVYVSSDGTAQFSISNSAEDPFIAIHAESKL

[2] = target: α-glucosidase (yeast); assay: chromogenic pNPG hydrolysis assay ([…] nm), commercial yeast enzyme; type: biochemical

SMILES: Oc1cc(O)cc(Oc2cc(O)c3c(c2-c2c(O)cc(O)c4c2Oc2c(O)cc(Oc5c(O)cc(O)cc5O)c(Oc5cc(O)cc(O)c5)c2O4)Oc2c(O)cc(O)c(Oc4cc(O)cc(O)c4)c2O3)c1 [2,7″-Phloroglucinol-6,6′-bieckol]
- pIC50 [1]: 5.16
- pIC50 [2]: 4.63

Reference: publication PMC6130562, “A phlorotannin constituent of Ecklonia cava alleviates postprandial hyperglycemia in diabetic mice” (Pharmaceutical Biology, 2017)
